MIC data for four molecules are collected here from DBAASP.

≈ marks a conversion by molar mass, not a printed value.

Holding throughout (experiment): ≥ marks a high value that may be exact or a test limit, other limits are often not marked, values filed in µg/mL are converted to µM
The test system of assay [1] is Candida albicans ATCC 2002.
For assay [2], the system named is Escherichia coli ATCC 25922.
The test system of assay [3] is Staphylococcus aureus ATCC 25923.
The test system of assay [4] is Pseudomonas aeruginosa CMCCB 10104.

Turning to `CC[C@H](C)[C@@H]1NC(=O)[C@H](CCCCN)NC(=O)[C@@H](NC(=O)[C@H](CCCCN)NC(=O)[C@H](CC(C)C)NC(=O)[C@H](CC(N)=O)NC(=O)[C@H](CC(=O)O)NC(=O)[C@H](CC(C)C)NC(=O)[C@H](CC(C)C)NC(=O)[C@H](CC(N)=O)NC(=O)CNC(=O)[C@H](C)NC(=O)[C@H](CCSC)NC(=O)[C@H](CC(N)=O)NC(=O)[C@H](CCCCN)NC(=O)[C@H](C)NC(=O)[C@@H](NC(=O)[C@H](CC(N)=O)NC(=O)[C@H](CCCCN)NC(=O)[C@H](C)NC(=O)[C@@H](NC(=O)[C@H](CC(=O)O)NC(=O)[C@H](CCSC)NC(=O)[C@H](Cc2ccccc2)NC(=O)CN)[C@@H](C)O)C(C)C)CSSC[C@@H](C(=O)O)NC(=O)[C@H](C)NC(=O)[C@H](CCCCN)NC(=O)[C@H]([C@@H](C)O)NC1=O` [GFMDTAKNVAKNMAGNLLDNLKCKITKAC], the minimum inhibitory concentration (MIC) in assay [1] came out at 0.803 µM (≈ 2.5 µg/mL); in assay [2] it was 1.61 µM (≈ 5 µg/mL); in assay [3], 0.803 µM (≈ 2.5 µg/mL); in assay [4] it was 3.21 µM (≈ 9.99 µg/mL).

For the molecule `C[C@@H](O)[C@H](NC(=O)[C@H](CO)NC(=O)[C@H](Cc1ccccc1)NC(=O)[C@@H](N)Cc1ccccc1)C(=O)N[C@@H](CO)C(=O)N[C@H]1CSSC[C@@H](C(=O)O)NC(=O)CNC(=O)[C@H](CO)NC(=O)[C@H](CCCN=C(N)N)NC1=O` [FFSTSCRSGC], the minimum inhibitory concentration (MIC) is at least 91.4 µM in assay [1], above 91.4 µM in assay [2], above 91.4 µM in assay [3] and at least 91.4 µM in assay [4].

Turning to `CC[C@H](C)[C@H](NC(=O)[C@H](CC(C)C)NC(=O)[C@H](CC(C)C)NC(=O)[C@H](CC(=O)O)NC(=O)[C@H](CCCCN)NC(=O)[C@@H](NC(=O)[C@@H](NC(=O)CNC(=O)[C@H](CCSC)NC(=O)[C@@H](NC(=O)[C@@H](N)CO)C(C)C)[C@@H](C)O)C(C)C)C(=O)NCC(=O)N[C@@H](C)C(=O)NCC(=O)N[C@@H](CCCCN)C(=O)N[C@@H](CO)C(=O)N[C@@H](C)C(=O)N[C@@H](C)C(=O)N[C@@H](CCC(N)=O)C(=O)N[C@@H](CO)C(=O)N[C@H](C(=O)N[C@@H](CC(C)C)C(=O)N[C@@H](CCCCN)C(=O)N[C@@H](CO)C(=O)N[C@@H](CC(C)C)C(=O)N[C@@H](CO)C(=O)N[C@H]1CSSC[C@@H](C(=O)O)NC(=O)[C@H](CC(=O)O)NC(=O)[C@H](CC(N)=O)NC(=O)[C@H](CO)NC(=O)[C@H]([C@@H](C)CC)NC(=O)[C@H](CCCCN)NC1=O)C(C)C` [SVMGTVKDLLIGAGKSAAQSVLKSLSCKISNDC], the MIC in assay [1] was 1.41 µM (≈ 4.7 µg/mL); in assay [2], 1.41 µM (≈ 4.7 µg/mL); in assay [3], 2.83 µM (≈ 9.39 µg/mL); in assay [4], 1.41 µM (≈ 4.7 µg/mL).

For the molecule `CC[C@H](C)[C@H](NC(=O)[C@H](CC(C)C)NC(=O)[C@H](CC(C)C)NC(=O)[C@H](CC(=O)O)NC(=O)[C@H](CCCCN)NC(=O)[C@@H](NC(=O)[C@@H](NC(=O)CNC(=O)[C@H](CCSC)NC(=O)[C@@H](NC(=O)[C@@H](N)CO)C(C)C)[C@@H](C)O)C(C)C)C(=O)NCC(=O)N[C@@H](C)C(=O)NCC(=O)N[C@@H](CCCCN)C(=O)N[C@@H](CO)C(=O)N[C@@H](C)C(=O)N[C@@H](C)C(=O)N[C@@H](CCC(N)=O)C(=O)N[C@@H](CO)C(=O)N[C@H](C(=O)N[C@@H](CC(C)C)C(=O)N[C@@H](CCCCN)C(=O)N[C@@H](C)C(=O)N[C@@H](CC(C)C)C(=O)N[C@@H](CO)C(=O)N[C@H]1CSSC[C@@H](C(=O)O)NC(=O)[C@H](CC(=O)O)NC(=O)[C@H](CCCCN)NC(=O)[C@H](CO)NC(=O)[C@H](CC(C)C)NC(=O)[C@H](CCCCN)NC1=O)C(C)C` [SVMGTVKDLLIGAGKSAAQSVLKALSCKLSKDC], the MIC turned out to be 3.16 µM (≈ 10.5 µg/mL) in assay [1], 3.16 µM (≈ 10.5 µg/mL) in assay [2], 3.16 µM (≈ 10.5 µg/mL) in assay [3] and 6.32 µM (≈ 21 µg/mL) in assay [4].
